Assay results from article PMC12284850, “In Silico Design of Antimicrobial Peptides against Carbapenem-Resistant Infections with Enhanced Activity by Nanoformulation” (ACS Applied Bio Materials, 2025).
In brackets after ≈: the same amount, converted by molar mass. Where two headings read alike, the source gives them in different places. Where a SMILES comes first, the peptide text is derived from it. Bridges are numbered along the chain shown (N, C = ends). [ ]: non-standard residue; d: D form. The star is where a group is joined. X1 = CC[C@H](C)CCCCC(=O)*; Dab = NCC[C@H](N)C(=O)O

What was measured:
A. baumannii ATCC19606 [1] = format: cell-based; settings: 37 °C, 18 h
From the text: The antimicrobial mechanism of colistin against bacteria has been attributed to the interaction between positively charged colistin and negatively charged outer membrane. Colistin could be displaced by divalent ions, such as calcium ions (Ca^2+) and magnesium (Mg^2+) in a competitively way. Moreover, elevated levels of divalent cations can enhance membrane rigidity, thereby reducing drug penetration and overall efficacy. To investigate the antimicrobial mechanism of T2–02, the competitive assays using divalent calcium ion were conducted. The elevated MICs of colistin were observed by adding Ca^2+ (2 to 32 μg/mL, Table S4).
As previously reported, the MIC values of T2–02 in conjunction with different chemical agents was estimated using the broth microdilution technique. Different concentrations of T2–02 were combined with Ca2+ separately, and the effect of chemical agents on T2–02 were tracked by observing variations in their MIC values. Each solution was added to a 96-well plate at the proper concentration in 100 μL volume. Next, 100 μL of the modified bacterial solution was added to each well. The absorbance was measured after incubation at 37 °C for 0 and 18 h.

HK-2 cells = assay: Cytotoxicity assay (MTT); format: cell-based
Experimental: (§1) We tested the cytotoxicity of several antibiotic compounds, including peptides and nanoparticles, on the human embryonic kidney cell lines HEK-293, HK-2, and […]. The cells were stored in DMEM medium and incubated at 37 °C with 5% CO2 in a humidifying environment. Using the MTT (methylthiazolyldiphenyl-tetrazolium bromide) test, cell viability was evaluated. Following a 5 × 10^3 cell/mL seeding in 96-well plates, the cells were exposed to 100 μL of samples at varying concentrations (12.5–200 μM) during 72 h at 37 °C. Later, each well is loaded with MTT solution (5 mg/mL in PBS) at a volume of 10 μL. The plates were left in the dark for 4 h. After forming formazan crystals due to the action of mitochondrial reductases in living cells, the crystals were dissolved using a solubilizing solution (pH 4.7, 40% dimethylformamide, 2% glacial acetic acid, and 16% sodium dodecyl sulfate) were shaken at 150 rpm and incubated for an hour at 37 °C. Using graphical plot analysis, the IC50 value–the concentration that results in 50% cell death–was obtained by measuring the absorbance of the dissolved formazan at 570 nm. The average of three independent tests, each carried out in triplicate, was used to display the results.

[2] = test system: human red blood cells (RBCs); assay: Hemolysis assay; format: cell-based; settings: at 256 μg/mL, 2% hematocrit, 1 h, 37 °C, absorbance 540 nm, triplicate
Experimental: 5 . Hemolysis profiles of colistin, free T2–02, and T2–02-loaded liposomes. (A) Colistin, (B) free T2–02 peptide, and (C) T2–02-loaded liposomes (T2–02 Lipo) were incubated with human red blood cells (RBCs) at various concentrations (0–256 μg/mL) for 1 hour at 37 °C.
The hemolytic potential of colistin, T2–02, and T2–02 Lipo were assessed using a modified erythrocyte lysis assay. Briefly, fresh erythrocytes were washed twice with phosphate-buffered saline (PBS) and resuspended in 5% glucose solution to prepare a 2% hematocrit suspension. Aliquots (100 μL) of each test compound at varying concentrations were incubated with the erythrocyte suspension at 37 °C with gentle agitation (120 rpm) for 1 h. After incubation, samples were centrifuged at 700 × g for 10 min, and the supernatant was transferred to a 96-well microplate. The release of hemoglobin was quantified by measuring the absorbance at 540 nm. The percentage of hemolysis was calculated as follows: Hemolysis (%) = (OD of test sample – OD of negative control)/(OD of positive control-OD of negative control) × 100%. Each experiment was performed in triplicate, and data were expressed as mean ± standard deviation (SD).

HEK293 = format: cell-based, human; settings: 72 h
Experimental: as §1

S. aureus ATCC33592 = format: cell-based
Experimental: (§2) The broth microdilution procedure involves preparing CAMHB broth, a bacterial suspension adjusted to McFarland 0.5 (1.5 × 10^8 CFU/mL) and diluted 200×, and a drug solution at 2× the final target concentration. To achieve a 400× final bacterial dilution, add 100 μL of the drug at different doses to a 96-well plate, then 100 μL of the diluted bacterial culture. Measure the initial absorbance (0 h), incubate at 37 °C for 16–18 h, and measure the final absorbance. With no change in absorbance, the MIC signifies the absence of bacterial growth.

[3] = test system: A. baumannii ATCC BAA-747; format: cell-based
Experimental: as §2

[4] = test system: K. pneumoniae ATCCC700603; format: cell-based
Experimental: as §2

S. aureus ATCC29213 = format: cell-based
Experimental: as §2

[5] = test system: K. pneumoniae ATCC BAA-1705; format: cell-based
Experimental: as §2

S. aureus ATCC25923 = format: cell-based
Experimental: as §2

P. aeruginosa ATCC27853 = format: cell-based
Experimental: as §2

S. aureus ATCC700698 = format: cell-based
Experimental: as §2

A. baumannii ATCC19606 [6] = format: cell-based
Experimental: as §2

E. faecalis ATCC 29212 = format: cell-based
Experimental: as §2

E. coil ATCC25922 = format: cell-based, E. coli
Experimental: as §2

Compound | Antibacterial activity (MIC), 20 mM CaCl2 (A. baumannii ATCC19606 [1]; in the presence of 20 mM CaCl2, broth microdilution) [µg/mL] | Antibacterial activity (MIC), Control (A. baumannii ATCC19606 [1]; without CaCl2, broth microdilution) [µg/mL] | Cytotoxicity HK-2 related to PMB (HK-2 cells; ratio of HK-2 IC50 to that of polymyxin B) | Hemolysis [2] [%] | IC50 HEK293 (HEK293) [µg/mL] | MIC (S. aureus ATCC33592) [µg/mL] | MIC [3] [µg/mL] | MIC [4] [µg/mL] | MIC (S. aureus ATCC29213) [µg/mL] | MIC [5] [µg/mL] | MIC (S. aureus ATCC25923) [µg/mL] | MIC (P. aeruginosa ATCC27853) [µg/mL] | MIC (S. aureus ATCC700698) [µg/mL] | MIC (A. baumannii ATCC19606 [6]) [µg/mL] | MIC (E. faecalis ATCC 29212) [µg/mL] | MIC (E. coil ATCC25922) [µg/mL] | Cytotoxicity HK-2 related to PMB (HK-2 cells)
CC[C@H](C)CCCCC(=O)N[C@@H](CCN)C(=O)N[C@H](C(=O)N[C@@H](CCN)C(=O)N[C@H]1CCNC(=O)[C@H]([C@@H](C)O)NC(=O)[C@H](CCN)NC(=O)[C@H](CCN)NC(=O)[C@H](CC(C)C)NC(=O)[C@@H](CC(C)C)NC(=O)[C@H](CCN)NC1=O)[C@@H](C)O [Colistin] (X1-[Dab]T[Dab][Dab][Dab][dL]L[Dab][Dab]T; lactam 4-C (inferred); N-terminus assumed) | 32 | 2 | 2.6 | ~45 |  |  |  |  |  |  |  |  |  |  |  |  | 
CC[C@H](C)[C@H](NC(=O)[C@H](CCC(=O)O)NC(=O)[C@H](CC(N)=O)NC(=O)[C@H](CC(C)C)NC(=O)[C@H](C)NC(=O)[C@H](C)NC(=O)[C@H](CCCCN)NC(=O)CNC(=O)[C@H](C)NC(=O)[C@H](CC(N)=O)NC(=O)[C@H](CCCCN)NC(=O)[C@H](CC(C)C)NC(=O)[C@@H](NC(=O)[C@H](CC(=O)O)NC(=O)[C@H](CCCCN)NC(=O)[C@H](Cc1c[nH]c2ccccc12)NC(=O)[C@H](CC(C)C)NC(=O)[C@H](C)N)[C@@H](C)CC)C(=O)N[C@@H](CC(N)=O)C(=O)N[C@@H](CCC(N)=O)C(=O)N[C@@H](CC(C)C)C(=O)O [T2] (H-ALWKDILKNAGKAALNEINQL-OH) |  |  |  |  | >1024 | >512 | 8 (≈ 3.44 µM) | >512 | >512 | >1024 | 1024 (≈ 441 µM) | 8 (≈ 3.44 µM) | >512 | 8 (≈ 3.44 µM) | 1024 (≈ 441 µM) | >1024 | 
CC[C@H](C)[C@H](NC(=O)[C@H](CCC(=O)O)NC(=O)[C@H](CC(N)=O)NC(=O)[C@H](CC(C)C)NC(=O)[C@H](C)NC(=O)[C@H](C)NC(=O)[C@H](CCCCN)NC(=O)CNC(=O)[C@H](CCCNC(=N)N)NC(=O)[C@H](CCCNC(=N)N)NC(=O)[C@H](CCCCN)NC(=O)[C@H](CC(C)C)NC(=O)[C@H](CC(C)C)NC(=O)[C@H](CCCNC(=N)N)NC(=O)[C@H](CCCCN)NC(=O)[C@H](Cc1c[nH]c2ccccc12)NC(=O)[C@H](CC(C)C)NC(=O)[C@H](C)N)C(=O)N[C@@H](CC(N)=O)C(=O)N[C@@H](CCC(N)=O)C(=O)N[C@@H](CC(C)C)C(=O)O [T2–01] (H-ALWKRLLKRRGKAALNEINQL-OH) |  |  |  |  |  | >512 | 64 (≈ 25.7 µM) | >512 | 512 (≈ 205 µM) | >512 | >512 | 64 (≈ 25.7 µM) | >512 | 64 (≈ 25.7 µM) | >512 | >512 | 
CC[C@H](C)[C@H](NC(=O)[C@H](CC(=O)O)NC(=O)[C@H](CCCCN)NC(=O)[C@H](Cc1c[nH]c2ccccc12)NC(=O)[C@H](CC(C)C)NC(=O)[C@H](C)N)C(=O)N[C@@H](CC(C)C)C(=O)N[C@@H](CCCCN)C(=O)N[C@@H](CC(N)=O)C(=O)N[C@@H](C)C(=O)NCC(=O)N[C@@H](CCCCN)C(=O)N[C@@H](C)C(=O)N[C@@H](C)C(=O)N[C@@H](CC(C)C)C(=O)N[C@@H](CC(N)=O)C(=O)N[C@@H](CCC(=O)O)C(=O)N[C@H](C(=O)N[C@@H](CC(N)=O)C(=O)N[C@@H](CCC(N)=O)C(=O)N[C@@H](CC(C)C)C(=O)N[C@H](C(=O)N[C@@H](CC(N)=O)C(=O)NCC(=O)N[C@@H](CCCNC(=N)N)C(=O)NCC(=O)N[C@@H](CC(C)C)C(=O)N[C@@H](CCCCN)C(=O)N[C@@H](CCCCN)C(=O)O)C(C)C)[C@@H](C)CC [seq ID-1, reference compound] (H-ALWKDILKNAGKAALNEINQLVNGRGLKK-OH) |  |  |  |  |  | >512 | 32 (≈ 10.1 µM) | 128 (≈ 40.3 µM) | >512 | 128 (≈ 40.3 µM) | 128 (≈ 40.3 µM) | 32 (≈ 10.1 µM) | >512 | 32 (≈ 10.1 µM) | 128 (≈ 40.3 µM) | 64 (≈ 20.1 µM) | 
SPR 206 [reference compound] |  |  |  |  |  |  |  |  |  |  |  |  |  |  |  |  | 11.6
